Data: PMC5494507, “γ‐Secretase inhibitors in cancer clinical trials are pharmacologically and functionally distinct” (EMBO Molecular Medicine, 2017)

Key:
[1] = tested on: Aβ40; design: method as in ref Appendix Table S1 (Gavai et al, 2015; Dovey et al, 2001; Cook et al, 2010; Krop et al, 2012; Wei et al, 2010; Luistro et al, 2009; Mitani et al, 2012); conditions: ref Appendix Table S1 (Gavai et al, 2015; Dovey et al, 2001; Cook et al, 2010; Krop et al, 2012; Wei et al, 2010; Luistro et al, 2009; Mitani et al, 2012); read-out: Reported IC50s Aβ40; cited from earlier work
[2] = molecular target: T1, SPPL2a (Mus musculus, UniProt Q9JJF9); assay: Endogenous CD74 P8 turnover in A20 cells (Western blot, In-1 antibody), biomarker for SPPL2a cleavage; assay type: cell-based; conditions: 16 h
T1 construct: To verify the finding in a non‐overexpressing cell line; endogenous in cells; host or cells: A20 (ATCC TIB-208)
T1 sequence (Q9JJF9 26-523): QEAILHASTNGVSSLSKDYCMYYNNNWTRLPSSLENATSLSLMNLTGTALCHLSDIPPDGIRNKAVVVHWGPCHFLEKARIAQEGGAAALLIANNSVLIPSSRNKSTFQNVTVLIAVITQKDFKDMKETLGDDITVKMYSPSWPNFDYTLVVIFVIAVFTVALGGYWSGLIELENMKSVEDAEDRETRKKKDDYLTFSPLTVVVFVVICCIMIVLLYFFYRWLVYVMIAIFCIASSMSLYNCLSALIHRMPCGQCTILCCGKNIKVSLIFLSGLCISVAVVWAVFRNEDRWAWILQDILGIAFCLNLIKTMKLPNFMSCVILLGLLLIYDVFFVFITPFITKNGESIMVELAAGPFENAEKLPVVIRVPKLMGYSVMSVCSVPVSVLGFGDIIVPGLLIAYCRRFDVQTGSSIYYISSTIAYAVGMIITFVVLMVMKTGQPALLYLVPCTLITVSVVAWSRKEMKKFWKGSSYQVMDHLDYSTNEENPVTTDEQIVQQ
Method: To verify the finding in a non‐overexpressing cell line, we applied the inhibitors to the mouse B lymphocyte cell line A20 (ATCC TIB‐208).
(§1) SPPL2a, SPPL2b, SPP, and chimeric substrate FBA were generated as previously described (Ran et al, 2015). A20 cells (TIB‐208; ATCC, Manassas, VA, USA) were cultured in RPMI‐1640 medium (ATCC) supplied with 10% fetal bovine serum, 1% penicillin/streptomycin, and 0.05 mM 2‐mercaptoethanol (Life Technologies). Various concentrations of GSIs and (ZLL)2‐ketone as indicated in figures were applied to transfected HEK 293t cells at 70–90% confluence or A20 cells at a density of 5 × 10^5 cells/ml with fresh media in 48‐well format for 16 h. Cells and conditioned media were used for WB, IP, and ELISA.
Sandwich ELISAs used for Aβ detection were performed as previously described (Murphy et al, 1999; Ran et al, 2014). Briefly, Aβ and Aβ‐like peptides in conditioned media were captured with Ab5 antibody and detected with horseradish peroxidase labeled mAb 4G8 (Biolegend). Synthetic Aβ1‐40 was used as standard. All ELISAs were developed with TMB substrate (KPL, Gaithersburg, Maryland, USA). Bis‐Tris precast gels (Biorad, Hercules, CA, USA) were used for all SDS–PAGE. Monoclonal anti‐FLAG M2 antibody (Sigma) and Aβ1‐16 antibody 6E10 (Covance) were used for Western blotting at 1:1,000 dilution. Anti‐CD74 In‐1 antibody (BD Bioscience, San Jose, CA, USA) was used for A20 cell lysate Western blotting at dilution of 1:1,000. MDA‐MB‐231 cell extracts were prepared by lysing cells in RIPA buffer containing protease and phosphatase inhibitors. The lysates were kept on ice for 30 min and vortexed every 10 min, and then centrifuged at 4°C for 10 min at 1,000 g. The supernatants were collected, and protein concentrations were determined by Bradford Assay. Pan‐NOTCH1 antibody (C‐20) (Santa Cruz Biotechnology) and cleaved NOTCH1 (Val1744) antibody ([…]) were used at 1:500 and 1:100 dilution in the test of endogenous NOTCH1 inhibition with β‐actin expression used as loading control. β‐actin antibody was used at 1:1,000 dilution (Sigma). Band intensities normalized for actin using densitometry analysis with ImageJ Software (NIH, USA).

[3] = molecular target: T2, SPPL2b (Homo sapiens, UniProt Q8TCT7); assay: Cell-based SPPL2b cleavage assay, stable SPPL2b/FBA overexpressing HEK 293 cell line (ELISA); conditions: 16 h
T2 construct: expressed in transfected cells
T2 sequence (Q8TCT7 26-592): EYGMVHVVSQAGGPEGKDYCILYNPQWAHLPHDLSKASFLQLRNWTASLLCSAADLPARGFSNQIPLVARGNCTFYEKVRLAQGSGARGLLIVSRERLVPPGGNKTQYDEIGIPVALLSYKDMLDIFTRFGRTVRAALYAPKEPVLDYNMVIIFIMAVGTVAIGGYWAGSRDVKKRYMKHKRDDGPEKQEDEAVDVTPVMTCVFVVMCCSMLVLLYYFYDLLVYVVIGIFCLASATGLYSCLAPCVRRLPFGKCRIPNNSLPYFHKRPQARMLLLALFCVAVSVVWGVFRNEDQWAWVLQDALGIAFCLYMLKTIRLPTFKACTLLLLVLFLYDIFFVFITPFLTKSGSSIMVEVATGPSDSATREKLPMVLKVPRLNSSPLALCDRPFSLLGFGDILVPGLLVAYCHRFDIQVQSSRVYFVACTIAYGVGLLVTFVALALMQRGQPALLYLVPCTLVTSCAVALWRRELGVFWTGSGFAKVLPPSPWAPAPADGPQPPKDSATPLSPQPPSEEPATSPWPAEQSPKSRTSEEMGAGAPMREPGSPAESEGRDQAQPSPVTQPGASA
Method: It is known that SPP/SPPLs can be inhibited by select GSIs (Ran et al, 2015). Here, we tested the effect of various GSIs on the SPP/SPPL family members SPPL2a, SPPL2b, and SPP. We co‐transfected SPPLs with the BRI2 based chimeric SPP/SPPL substrate that we have referred to as FBA into HEK 293t cells. SPPL‐specific inhibitor (ZLL)2‐ketone was used as positive control. DAPT was not tested here as we and others have previously reported it had no effect on SPP activity at concentration up to 100 μM (Weihofen et al, 2003). […] Dose responses of BMS‐906024, RO4929097, and PF‐3084014 were performed with a similar strategy, but a stable SPPL2b/FBA overexpressing HEK 293 cell line was used instead of transient transfection (Fig 8B). […] Table 3 compares the GSIs’ potencies on γ‐secretase and SPPL2b. The average of IC50s on cNOTCH1sub, cNOTCH2sub, cNOTCH4sub, and APP was used as the GSI's potency on γ‐secretase.
as §1
Sandwich ELISAs used for Aβ detection were performed as previously described (Murphy et al, 1999; Ran et al, 2014). Briefly, Aβ and Aβ‐like peptides in conditioned media were captured with Ab5 antibody and detected with horseradish peroxidase labeled mAb 4G8 (Biolegend). Synthetic Aβ1‐40 was used as standard. All ELISAs were developed with TMB substrate (KPL, Gaithersburg, Maryland, USA). Bis‐Tris precast gels (Biorad, Hercules, CA, USA) were used for all SDS–PAGE. […] The supernatants were collected, and protein concentrations were determined by Bradford Assay. […]

Structure (SMILES) | IC50 [1] [nM] | stabilization of CD74 8 kDa NTF P8 ([2]; 40 nM) | IC50 [3] [nM] | stabilization of CD74 8 kDa NTF P8 ([2]; at the tested dose) | stabilization of CD74 8 kDa NTF P8 ([2]; 1,000 nM)
CN1C(=O)[C@@H](NC(=O)[C@H](CCC(F)(F)F)[C@H](CCC(F)(F)F)C(N)=O)N=C(c2ccccc2)c2ccccc21 [BMS‐906024] | 1.6 | greatly stabilized | 28.3 | – | –
O=C(O)CC[C@H]1CC[C@@](c2cc(F)ccc2F)(S(=O)(=O)c2ccc(Cl)cc2)CC1 [MK‐0752] | 5 | – | – | did not show stabilization activity | –
CCC[C@H](N[C@H]1CCc2cc(F)cc(F)c2C1)C(=O)Nc1cn(C(C)(C)CNCC(C)(C)C)cn1 [PF‐3084014] | 6.2 | slightly stabilized | 1160 | – | –
CC(C)(C(=O)NCC(F)(F)C(F)(F)F)C(=O)N[C@@H]1C(=O)Nc2ccccc2-c2ccccc21 [RO4929097] | 14 | greatly stabilized | 72.8 | – | –
CC(C)[C@H](O)C(=O)N[C@@H](C)C(=O)N[C@@H]1C(=O)N(C)CCc2ccccc21 [Semagacestat] | 12.1 | – | – | – | weak stabilization
